# Laboratory results published in paper PMC8434491, “Targeting the Integrated Stress Response Kinase GCN2 to Modulate Retroviral Integration” (Molecules, 2021).
# Structures can show the parent of a compound that is named as a salt. Where two headings read alike, the source gives them in different places.
# Experiments:
# IN–GCN2 interaction = target: T1, IN–GCN2 interaction (UniProt P04585+Q9P2K8); experiment: IN–GCN2 interaction assay (AlphaLISA); type: binding, HIV-1 IN / human GCN2; settings: for effect on the IN–GCN2 interaction: A-92: over a wide concentration range, MK-2048: nanomolar or low micromolar ranges
# T1 construct: expressed as a truncated version (192-1024) in fusion after a glutathione S-transferase tag; Recombinant full-length IN was expressed in E. coli BL21 pLys; purchased SignalChem (GCN2); IN made in house in E. coli BL21 pLys E12-11G; host or cells: E. coli BL21 pLys (IN)
# Excerpt: We developed an in vitro plate-based assay to monitor the interaction between GCN2 and IN using the AlphaLISA technology (Figure 1). Taking advantage of the tags present on each recombinant protein (6xHis for IN prepared “in-house”, and GST for GCN2 commercially available), we used specific beads that fluoresce only when they are in close proximity (<200 nm). The signal obtained (light count) is directly proportional to the binding of IN to GCN2 (homogenous solution assay at steady state).
# IN–GCN2 interaction assay. Protein–protein interactions were monitored using the AlphaLISA technology (Perkin Elmer) taking advantage of the GST and 6xHis tags of GCN2 and IN, respectively. Accordingly, AlphaScreen GSH Donor beads and AlphaLISA Nickel Acceptor beads were used (Perkin Elmer). Reactions were carried out at room temperature by incubating GCN2 with drugs or DMSO for 5 min before addition of AlphaLISA Nickel Acceptor beads. After 5 min, IN was added to the reaction mixture and incubated for 20 min before adding the AlphaScreen GSH Donor beads. This interaction assay was performed in conditions similar to the in vitro phosphorylation assay, already described, using 25 nM GCN2 and 700 nM (except indicated otherwise) in a reaction buffer containing 50 mM Tris-HCl pH 7.5, 40 mM NaCl, 1 mM dithiothreitol (DTT), 0.05% Tween 20, 0.1% bovine serum albumin (BSA), 10 µg/mL of each donor and acceptor beads. Alpha signal was measured using an EnSight plate reader (Perkin Elmer) 120 min after the addition of the latest component of the reaction (unless indicated otherwise).
# HIV-1 IN [1] = target: T2, HIV-1 IN (Human immunodeficiency virus type 1 group M subtype B, UniProt P04585); experiment: Integrase reaction, strand transfer (ST), gel-based; type: biochemical
# T2 construct: Recombinant full-length IN was expressed in E. coli BL21 pLys; 6xHis; made in house; host or cells: E. coli BL21 pLys
# Experimental: (§1) Oligonucleotides. Oligonucleotides were purchased from Integrated DNA Technologies, Inc. (Leuven, Belgium), purified on polyacrylamide gel through electro-elution and dissolve in water. 19T ([…]) and 21B ([…]) correspond to the cleaved and non-cleaved strands specifically recognized by HIV-1 IN. Radiolabeling of 19T at the 5′-end was performed with [γ-^32P] ATP (Perkin-Elmer, Villebon-sur-Yvette, France) using T4 polynucleotide kinase (Promega, Charbonnières-les-Bains, France), according to the manufacturers’ instructions. Unincorporated isotopes were removed using illustra microspin G-25 Columns (Cytiva life sciences, Amersham, Little Chalfont, United Kingdom). DNA duplexes were annealed using an equimolar ratio of the complementary strand 21B, heating to 95 °C, and slow cooling to room temperature.
# Integrase reactions. IN reactions were carried out by adding molecules or an equivalent volume of 100% DMSO (dimethyl sulfoxide, used as the drug solvent) to a mixture of 20 nM duplex DNA (19T/21B) and 400 nM IN in 50 mM MOPS pH 7.2, 7.5 mM MgCl2, and 14 mM 2-mercaptoethanol. Reactions were performed at 37 °C for 1 h and quenched by addition of an equal volume (10 µL) of loading buffer [formamide containing 1% SDS (sodium dodecyl sulfate), 0.25% bromophenol blue, and xylene cyanol]. Reaction products were separated in 16% polyacrylamide denaturing sequencing gels. Dried gels were visualized using a FLA-5000 imaging system (Fujifilm). Densitometric analyses were performed using the ImageQuant 5.1 software (GE Healthcare, Chicago, IL, USA) and data analyzed using Prism 6.05 software (GraphPad, San Diego, CA, USA).
# HIV-1 IN [2] = target: T2, HIV-1 IN; experiment: Integrase reaction, 3'-processing (3'-P), gel-based; type: biochemical; settings: gel-based assay
# Experimental: as §1
# Integrase reactions. IN reactions were carried out by adding molecules or an equivalent volume of 100% DMSO (dimethyl sulfoxide, used as the drug solvent) to a mixture of 20 nM duplex DNA (19T/21B) and 400 nM IN in 50 mM MOPS pH 7.2, 7.5 mM MgCl2, and 14 mM 2-mercaptoethanol. […] Densitometric analyses were performed using the ImageQuant 5.1 software (GE Healthcare, Chicago, IL, USA) and data analyzed using Prism 6.05 software (GraphPad, San Diego, CA, USA).
# GCN2 = target: T3, GCN2 (Homo sapiens, UniProt Q9P2K8); experiment: In vitro phosphorylation assay: GCN2 activation (auto-phosphorylation); type: biochemical; settings: for decrease in GCN2 auto-phosphorylation: single dose of 100 µM, compared to DMSO
# T3 construct: expressed as a truncated version (192-1024) in fusion after a glutathione S-transferase tag; purchased SignalChem E12-11G
# T3 sequence (Q9P2K8 192-1024): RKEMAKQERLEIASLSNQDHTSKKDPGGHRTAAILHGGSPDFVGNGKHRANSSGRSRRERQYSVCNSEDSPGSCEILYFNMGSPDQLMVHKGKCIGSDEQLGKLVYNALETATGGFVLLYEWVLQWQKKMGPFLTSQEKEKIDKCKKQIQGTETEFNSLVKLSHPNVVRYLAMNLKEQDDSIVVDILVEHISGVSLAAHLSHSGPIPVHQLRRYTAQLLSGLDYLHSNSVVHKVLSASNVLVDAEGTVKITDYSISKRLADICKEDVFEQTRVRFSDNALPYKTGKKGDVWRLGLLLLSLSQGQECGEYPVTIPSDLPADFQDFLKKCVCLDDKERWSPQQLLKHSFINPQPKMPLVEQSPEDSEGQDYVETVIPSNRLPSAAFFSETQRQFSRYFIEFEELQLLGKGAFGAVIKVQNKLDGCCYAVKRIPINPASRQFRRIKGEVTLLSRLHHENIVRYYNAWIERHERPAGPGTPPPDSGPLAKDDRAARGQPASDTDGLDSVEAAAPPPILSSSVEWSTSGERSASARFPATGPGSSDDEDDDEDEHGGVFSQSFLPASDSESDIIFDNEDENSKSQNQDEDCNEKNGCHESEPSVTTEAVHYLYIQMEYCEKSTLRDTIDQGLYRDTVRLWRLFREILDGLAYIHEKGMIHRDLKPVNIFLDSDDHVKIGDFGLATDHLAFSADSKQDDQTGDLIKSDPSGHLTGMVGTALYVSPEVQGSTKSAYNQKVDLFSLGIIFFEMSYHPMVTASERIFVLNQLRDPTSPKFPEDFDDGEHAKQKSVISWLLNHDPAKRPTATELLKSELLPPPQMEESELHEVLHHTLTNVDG
# Excerpt: Enzymes. GCN2 was purchased from SignalChem (EIF2AK4, cat. #E12-11G). This human recombinant protein was expressed as a truncated version (192-1024) in fusion after a glutathione S-transferase tag (approximate molecular weight of 132 kDa). Recombinant full-length IN was expressed in E. coli BL21 pLys (IPTG induction) and purified on a nickel chelating column, as described. Integrity and purity were checked by direct Coomassie coloration of elution fractions on SDS-PAGE before dialysis to remove imidazole. Protein concentration was determined using a NanoDrop 2000 with the following parameters: molecular weight: 34 kDa, extinction coefficient ϵ = 50,460 mol^−1cm^−1L.
# (§2) In vitro phosphorylation assay. Phosphorylation of IN (700 nM) was carried out using 25 nM of GCN2 in a reaction buffer containing 10 mM Tris-HCl pH 7.5, 50 mM NaCl, 15 mM MgCl2, 7.5 mM MnCl2, 10 mM DTT, 0.005% Nonidet P-40, 100 µM ATP, 50 µCi/µL of [γ-^32P]-ATP (3000 Ci/mmole, Perkin Elmer). Reactions (20 µL) were stopped after a 60 min incubation at 30 °C by adding 10 µL of loading buffer [80 mM Tris-HCl pH 6.8, 100 mM DTT, 10% glycerol, 1% sodium dodecyl sulfate (SDS) and 0.05% bromophenol blue]. Samples were then loaded onto a 10% denaturating SDS-PAGE. After protein separation (120 V for 120 min) the gel was stained using Coomassie Brilliant Blue R-250. Autoradiography was performed using an imaging plate (Fujifilm, Tokyo, Japan) and images were obtained with a FLA-5000 Imaging System (Fujifilm).
# [3] = target: T4, IN's phosphorylation catalyzed by GCN2 (Homo sapiens, UniProt Q9P2K8); experiment: In vitro phosphorylation assay: phosphorylation of IN catalyzed by GCN2; type: biochemical, human GCN2 / HIV-1 IN; settings: for inhibition at 100 µM: read-out: decrease (inhibition) in IN phosphorylation; for concentration giving full inhibition of IN phosphorylation: serial dilutions from 300 µM to 137 nM
# T4 construct: expressed as a truncated version (192-1024) in fusion after a glutathione S-transferase tag; purchased SignalChem (GCN2); IN made in house in E. coli BL21 pLys E12-11G; host or cells: E. coli BL21 pLys (IN)
# T4 sequence (Q9P2K8 192-1024): T3 sequence (Q9P2K8 192-1024)
# Experimental: Enzymes. GCN2 was purchased from SignalChem (EIF2AK4, cat. #E12-11G). […] Recombinant full-length IN was expressed in E. coli BL21 pLys (IPTG induction) and purified on a nickel chelating column, as described. Integrity and purity were checked by direct Coomassie coloration of elution fractions on SDS-PAGE before dialysis to remove imidazole.
# as §2, with “Phosphorylation of IN (700 nM) was carried out using 25 nM of GCN2 in a reaction buffer containing 10 mM Tris-HCl pH 7.5, 50 mM NaCl, 15 mM MgCl2, 7.5 mM MnCl2, 10 mM DTT, 0.005% Nonidet P-40, 100 µM ATP, 50 µCi/µL of [γ-^32P]-ATP (3000 Ci/mmole, Perkin Elmer).” left out
# [4] = pilot screen, single dose of 100 µM
# [5] = 100 µM, dose-response experiment
# [6] = pilot screen, single dose of 100 µM, read-out: inhibition of the IN–GCN2 interaction signal
# [7] = single dose of 100 µM, compared to DMSO
smiles,measurement,setting,value
"CCc1c2c(nc3ccc(OC(=O)N4CCC(N5CCCCC5)CC4)cc13)-c1cc3c(c(=O)n1C2)COC(=O)[C@]3(O)CC [irinotecan, Irinotecan hydrochloride]",inhibition of the IN–GCN2 interaction signal,IN–GCN2 interaction; [4],no effect
CCN1C[C@@H](C)n2c(c(O)c3c(=O)n(Cc4ccc(F)c(Cl)c4)nc(C(=O)NC)c32)C1=O [MK-2048],IC50,"HIV-1 IN [1]; gel-based assay, read-out: apparent IC50, inhibition of ST",20 nM
same,effect on the IN–GCN2 interaction,IN–GCN2 interaction,did not affect
same,IC50,"IN–GCN2 interaction; read-out: apparent IC50, IN–GCN2 interaction",~100000 nM
same,IC50,HIV-1 IN [2],2000 nM
"CC1=C(/C=C/C(C)=C/C=C/C(C)=C/C(=O)O)C(C)(C)CCC1 [NSC122758, Tretinoin]",value (signal) at the highest dose in the dose-response experiment,IN–GCN2 interaction; [5],10.5%
same,inhibition at 100 µM,"IN–GCN2 interaction; 100 µM, dose-response experiment, corresponding to the printed signal, read-out: inhibition at the highest dose in the dose-response experiment",89.5%
same,inhibition at 100 µM,IN–GCN2 interaction; [6],87.3%
same,decrease in GCN2 auto-phosphorylation,GCN2,no impact
same,decrease (inhibition) in IN phosphorylation,[3]; [7],no impact
"C=CC(=O)Nc1cc(Nc2nccc(-c3cn(C)c4ccccc34)n2)c(OC)cc1N(C)CCN(C)C [NSC779217, Osimertinib]",inhibition at 100 µM,IN–GCN2 interaction; [6],83.5%
same,decrease in GCN2 auto-phosphorylation,GCN2,around 20%
same,inhibition at 100 µM,[3]; [7],~20%
"CNCc1ccc(-c2[nH]c3cc(F)cc4c3c2CCNC4=O)cc1 [NSC756644, Rucaparib phosphate]",concentration giving full inhibition of GCN2 auto-phosphorylation,GCN2; serial dilutions from 300 µM to 137 nM,300 µM
same,decrease in GCN2 auto-phosphorylation,GCN2,~80%
same,concentration giving full inhibition of IN phosphorylation,[3],300 µM
same,decrease (inhibition) in IN phosphorylation,[3]; [7],inhibited
c1nn(C2CCOCC2)cc1Nc1ncc2nnn(-c3ccc4cn[nH]c4c3)c2n1 [A-92],doses with a slight impact on IN–GCN2 interaction,IN–GCN2 interaction,above 333 µM
same,inhibition at 1000 µM,IN–GCN2 interaction; 1 mM,< 20%
same,effect on the IN–GCN2 interaction,IN–GCN2 interaction,did not affect
same,IC50,"GCN2; read-out: apparent IC50, GCN2's activation (autophosphorylation)",~200 nM
"CC1(C)CCC(CN2CCN(c3ccc(C(=O)NS(=O)(=O)c4ccc(NCC5CCOCC5)c([N+](=O)[O-])c4)c(Oc4cnc5[nH]ccc5c4)c3)CC2)=C(c2ccc(Cl)cc2)C1 [NSC766270, Venetoclax]",inhibition at 100 µM,IN–GCN2 interaction; [6],93.6%
same,decrease in GCN2 auto-phosphorylation,GCN2,no impact
same,decrease (inhibition) in IN phosphorylation,[3]; [7],no impact
"Cc1cn(-c2cc(NC(=O)c3ccc(C)c(Nc4nccc(-c5cccnc5)n4)c3)cc(C(F)(F)F)c2)cn1 [NSC747599, Nilotinib]",decrease in GCN2 auto-phosphorylation,GCN2,no effect
same,inhibition at 100 µM,[3]; [7],40%
"Cc1ccc(C(=O)Nc2ccc(CN3CCN(C)CC3)c(C(F)(F)F)c2)cc1C#Cc1cnc2cccnn12 [NSC758487, Ponatinib]",decrease in GCN2 auto-phosphorylation,GCN2,around 35%
same,inhibition at 100 µM,[3],> 80%
same,concentration giving full inhibition of IN phosphorylation,[3],without reaching full inhibition
"Clc1ccc(C(c2ccccc2Cl)C(Cl)Cl)cc1 (stereo not shown) [NSC38721, Mitotane]",effect on IN strand transfer activity,"HIV-1 IN [1]; serial dilutions from 100 µM to 45.7 nM, only IN present",inactive
same,value (signal) at the highest dose in the dose-response experiment,IN–GCN2 interaction; [5],248.5%
same,increase in signal (IN–GCN2 interaction),"IN–GCN2 interaction; pilot screen, 100 µM, compared to the DMSO control",299.9%
same,inhibition at 100 µM,[3]; [7],~30%
"CC[C@@]1(O)C(=O)OCc2c1cc1n(c2=O)Cc2cc3c(CN(C)C)c(O)ccc3nc2-1 [topotecan, Topotecan hydrochloride]",inhibition of the IN–GCN2 interaction signal,IN–GCN2 interaction; [4],no effect
